Assay results taken from PubChem BioAssay AID1963835 (Molecular Pharmacology Branch, DTP, NCI, 2024).
“And” between values parts separate entries of the source, which are not always exact repeats. Equal values may be shown once.

System: 699152-130-R-J1-PDC complex spheroid viability
Test: Anticancer human tumor 699152-130-R-J1-PDC patient-derived pancreatic carcinoma cell line growth inhibition [POLQ]
Details: for viability, T/C: stronger effect = lower value; active means viability on the fitted dose curve at most 10% of control; inactive means the rest
Method: Multicellular complex tumor spheroid response to Polymerase (POL) inhibitors (novobiocin, ART-558, RP6685) in combination with a variety of drugs and investigational agents in selected tumor cell lines
The POL inhibitors (novobiocin, ART-558, and RP6685) were evaluated both individually and in combination with standard of care and investigational anticancer small molecules within a complex spheroid model of solid tumors. . Complex spheroids include a stromal component modeled by human endothelial cells (HUVEC) and fibroblasts modeled by human mesenchymal stem cells (MSCs). The concentration ranges selected for each drug and investigational agent were based upon clinically achievable concentrations if the clinical Cmax of the agent was known.
Compounds. The drugs and investigational agents: novobiocin (NSC847541), ART-558 (NSC835418), RP-6685 (NSC848927), peposertib (NSC802822), ceralasertib (NSC780249), elimusertib (NSC800525), camonsertib (NSC841442), AZD-1390 (NSC803789), olaparib (NSC753686), talazoparib (NSC767125), rucaparib (NSC756644), sotorasib (NSC818433), MRTX-1133 (NSC836407), SN-38 (NSC673596), topotecan (NSC609699), epotoside (NSC141540), doxorubicin (NSC123127), gemcitabine (NSC613327), 5-fluorouracil (NSC19893), paclitaxel (NSC125973), vemurafenib (NSC761431), MSA-2 (NSC828583), SN-011 (NSC837082), adavosertib (NSC754352), prexasertib (NSC758257), carboplatin (NSC241240) and oxaliplatin (NSC266046), were obtained from the National Cancer Institute (NCI) Developmental Therapeutics Program Chemical Repository (21). The FDA-approved anticancer drug set is available from the Developmental Therapeutics Program at https://dtp.cancer.gov/organization/dscb/obtaining/. […] The stock solutions were prepared in dimethyl sulfoxide (DMSO, Sigma-Aldrich, St. Louis, MO, cat. D2650), except for the platinum compounds which were prepared in saline (Quality Biological, Gaithersburg, MD, cat. 114-055-101), at 800-fold the tested concentration and stored at -70 degrees C prior to their use. All drugs and investigational agents were tested over a range starting from a high concentration at or near the clinical Cmax and decreasing in half-log increments. If the clinical Cmax for an agent had not been determined, the highest concentration tested was 10 microM, except for SN-38, which was tested at a high concentration of 1 microM.
Cell Culture. All cells were maintained in an incubator at 37 degrees C and 5% CO2 with 95% humidity. The PDC lines were cultured according to standard operating procedures established by the NCI PDMR (https://pdmr.cancer.gov). Table 3 of the manuscript, lists the cell lines along with the number of the three cell types plated to form the mct-spheroids and media for tumor cell growth. After thawing, all PDC lines, except 997537-175-T-J1-PDC and 415267-285-R-J2-PDC, were cultured in Matrigel-coated flasks prepared with a working solution of 1X Ham's F-12 nutrient mix, without supplementation (Thermo Fisher Scientific, cat. 11765054), 100 U/mL penicillin-streptomycin (Thermo Fisher Scientific, cat. 15140122), and 2.5% Matrigel (Corning Inc., Corning, NY, cat. 354248) for the first three passages. The two PDC lines 997537-175-T-J1-PDC and 415267-285-R-J2-PDC were cultured on uncoated flasks. The 857933-349-R-J2-PDC line was cultured in 6C/Colon 1B media containing advanced DMEM/F-12 (Thermo Fisher Scientific, cat. 12634028), 10 mM HEPES (Thermo Fisher Scientific, cat. 15630080), 1X GlutaMAX supplement (Thermo Fisher Scientific, cat. 35050061), 0.1 mg/mL primocin (InvivoGen, San Diego, CA, cat. ant-pm-2), 10% defined fetal bovine serum, heat inactivated (HyClone Laboratories Inc., Logan, UT, cat. SH30070.03HI), 50% L-WRN conditioned media (ATCC, cat. CRL-3276), 1.25 mM N-Acetyl-L-cysteine (Sigma-Aldrich, cat. A9165), 10 mM nicotinamide (Sigma-Aldrich, cat. N0636), 1X B-27 supplement (Thermo Fisher Scientific, cat. 17504044), 1X N-2 supplement (Thermo Fisher Scientific, cat. […]
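Further: spheroids exposed to agents for 7 days before viability reading.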
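Wherever viability, T/C is given: percent of DMSO vehicle control viability so 100% = vehicle and 0% = no viable signal.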

CC(=O)O[C@H]1C(=O)[C@@]2(C)[C@H]([C@H](OC(=O)c3ccccc3)[C@]3(O)C[C@H](OC(=O)[C@H](O)[C@@H](NC(=O)c4ccccc4)c4ccccc4)C(C)=C1C3(C)C)[C@]1(OC(C)=O)CO[C@@H]1C[C@@H]2O + COC1C(OC(N)=O)C(O)C(Oc2ccc3c(O)c(NC(=O)c4ccc(O)c(CC=C(C)C)c4)c(=O)oc3c2C)OC1(C)C
> 3000 nM: IC50 (curve of first compound, second compound 0.0316 µM) | IC50 (curve of first compound, second compound 0.1 µM) | IC50 (curve of first compound, second compound 0.316 µM) | IC50 (curve of first compound, second compound 1 µM) | IC50 (curve of first compound, second compound 3.16 µM) | IC50 (curve of first compound, second compound 10 µM)
inactive: viability, T/C (second compound 0.0316 µM, first compound 0.00949 µM) 81.5% | viability, T/C (second compound 0.0316 µM, first compound 0.03 µM) 57% | viability, T/C (second compound 0.0316 µM, first compound 0.0949 µM) 57.1% | viability, T/C (second compound 0.0316 µM, first compound 0.3 µM) 60.7% | viability, T/C (second compound 0.0316 µM, first compound 0.949 µM) 70.2% | viability, T/C (second compound 0.0316 µM, first compound 3 µM) 63% | viability, T/C (second compound 0.1 µM, first compound 0.00949 µM) 87.9% | viability, T/C (second compound 0.1 µM, first compound 0.03 µM) 60.2% | viability, T/C (second compound 0.1 µM, first compound 0.0949 µM) 47.7% | viability, T/C (second compound 0.1 µM, first compound 0.3 µM) 62.5% | viability, T/C (second compound 0.1 µM, first compound 0.949 µM) 62.4% | viability, T/C (second compound 0.1 µM, first compound 3 µM) 74.5% | viability, T/C (second compound 0.316 µM, first compound 0.00949 µM) 90% | viability, T/C (second compound 0.316 µM, first compound 0.03 µM) 61.4% | viability, T/C (second compound 0.316 µM, first compound 0.0949 µM) 46.9% | viability, T/C (second compound 0.316 µM, first compound 0.3 µM) 53.2% | viability, T/C (second compound 0.316 µM, first compound 0.949 µM) 57.3% | viability, T/C (second compound 0.316 µM, first compound 3 µM) 58.1% | viability, T/C (second compound 1 µM, first compound 0.00949 µM) 77.2% | viability, T/C (second compound 1 µM, first compound 0.03 µM) 67.8% | viability, T/C (second compound 1 µM, first compound 0.0949 µM) 52.8% | viability, T/C (second compound 1 µM, first compound 0.3 µM) 57.7% | viability, T/C (second compound 1 µM, first compound 0.949 µM) 66% | viability, T/C (second compound 1 µM, first compound 3 µM) 68.7% | viability, T/C (second compound 3.16 µM, first compound 0.00949 µM) 91.9% | viability, T/C (second compound 3.16 µM, first compound 0.03 µM) 68.9% | viability, T/C (second compound 3.16 µM, first compound 0.0949 µM) 62.4% | viability, T/C (second compound 3.16 µM, first compound 0.3 µM) 55.5% | viability, T/C (second compound 3.16 µM, first compound 0.949 µM) 59.6% | viability, T/C (second compound 3.16 µM, first compound 3 µM) 73.1% | viability, T/C (second compound 10 µM, first compound 0.00949 µM) 84% | viability, T/C (second compound 10 µM, first compound 0.03 µM) 60.6% | viability, T/C (second compound 10 µM, first compound 0.0949 µM) 60.6% | viability, T/C (second compound 10 µM, first compound 0.3 µM) 61.7% | viability, T/C (second compound 10 µM, first compound 0.949 µM) 73.1% | viability, T/C (second compound 10 µM, first compound 3 µM) 67.9%

CCc1c2c(nc3ccc(O)cc13)-c1cc3c(c(=O)n1C2)COC(=O)[C@]3(O)CC
inactive: viability, T/C (compound 0.00316 µM) 79.8% and 73.5% and 71.1% | viability, T/C (compound 0.01 µM) 59.2% and 56% and 49.9% | viability, T/C (compound 0.0316 µM) 55.4% and 52.2% and 41.7% | viability, T/C (compound 0.1 µM) 45.9% and 44.3% and 37.6% | viability, T/C (compound 0.316 µM) 24.9% and 35.3% and 28.6%
7.27% and 9.92% and 8.91%: viability, T/C (compound 1 µM)
47.1 nM and 38.3 nM and 19.1 nM: IC50 (curve of compound)

CC[C@@]1(O)C(=O)OCc2c1cc1n(c2=O)Cc2cc3c(CN(C)C)c(O)ccc3nc2-1
> 100 nM: IC50 (curve of compound)
inactive: viability, T/C (compound 0.000316 µM) 93.1% and 110% and 102% | viability, T/C (compound 0.001 µM) 97.6% and 90% and 108% | viability, T/C (compound 0.00316 µM) 98.8% and 105% and 99.5% | viability, T/C (compound 0.01 µM) 94.2% and 111% and 93.4% | viability, T/C (compound 0.0316 µM) 72.9% and 81.9% and 79.4% | viability, T/C (compound 0.1 µM) 59.6% and 68.9% and 54.6%
